“And” between values parts separate entries of the source, which are not always exact repeats. Equal entries are not always repeated.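 Following 48 hours of exposure in 96-well plates, responses at five concentrations were used to interpolate endpoints linearly. Abbreviation: GI50, concentration required for 50% inhibition of growth. TGI denotes the concentration required for complete inhibition of growth.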
Assays:
Test in all cases: NCI-60 cell line screen, 48 h
[1] = system: A549 NSCLC
[2] = system: EKVX NSCLC
[3] = system: HOP-62 NSCLC
[4] = system: HT29 colon
[5] = system: MOLT-4 leukemia
[6] = system: NCI-H522 lung
[7] = system: OVCAR-5 ovarian
[8] = system: SN12C renal
[9] = system: UO-31 renal
[10] = system: T-47D breast

SMILES | TGI [1] | TGI [2] | TGI [3] | TGI [4] | TGI [5] | TGI [6] | TGI [7] | TGI [8] | TGI [9] | TGI [10] | GI50 [1] [µM] | GI50 [2] [µM] | GI50 [4] [µM] | GI50 [5] [µM] | GI50 [10] [µM]
CCN(CC)/[N+]([O-])=N/OC | > 100 µM | > 100 µM | > 100 µM | > 100 µM | > 100 µM | > 100 µM | > 100 µM | > 100 µM | > 100 µM | – | – | – | – | – | –
COc1cccc(/C=N/[N-]C(N)=O)c1[O-].[Cu+2].[OH3+].c1cnc2c(c1)ccc1cccnc12 | 28.7 µM | 34.4 µM | 36 µM | 75.5 µM | > 100 µM | – | > 100 µM | > 100 µM | 38.2 µM | – | – | – | – | – | –
CCOC(=O)C(Cc1ccc(OC(=O)c2ccc(OC)cc2OC)cc1)NC(=O)C(F)(F)F (centres undefined) | > 100 µM | 49.6 µM | 44.9 µM | 47.1 µM | > 100 µM | 40.9 µM | > 100 µM | > 100 µM | 34.5 µM | 61.6 µM | – | – | – | – | –
COC1OC(C(=O)CP(=O)(OC)OC)C(OCc2ccccc2)C(OCc2ccccc2)C1OCc1ccccc1 (centres undefined) | 31.2 µM and 31.9 µM | 29.4 µM and 32.2 µM | 32 µM and 32.5 µM | 30.6 µM and 31.7 µM | 32.7 µM and 50.3 µM | 29.5 µM and 32.2 µM | 29.2 µM and 31.8 µM | 30.1 µM and 30 µM | 30.9 µM and 23.5 µM | 39.6 µM and 43.7 µM | – | – | – | – | –
O=CC(O)C(O)C(O)COc1cc(CO)cc2c1C(=O)c1ccccc1C2=O (centres undefined) | > 100 µM | > 100 µM | > 100 µM | > 100 µM | > 100 µM | > 100 µM | > 100 µM | > 100 µM | > 100 µM | – | – | – | – | – | –
C/C(=C\CNc1ncnc2nc(Cl)[nH]c12)CO | > 100 µM | > 100 µM | > 100 µM | > 100 µM | > 100 µM | > 100 µM | > 100 µM | > 100 µM | > 100 µM | > 100 µM | – | – | – | – | –
CC(C)(C)OC(=O)N1C[C@H](CC(=O)OCc2ccccc2)C[C@H]1C(=O)OCC(Cl)(Cl)Cl | > 50 µM | > 50 µM | > 50 µM | > 50 µM | 3.36 µM | 13.6 µM | > 50 µM | > 50 µM | 11 µM | > 50 µM | – | – | – | – | –
C/C=C/C=C/C1=NN(c2cccc(S(=O)(=O)O)c2)C2(C1)C(Cl)C(=O)N2c1nc2ccccc2s1 (centres undefined) | 28.3 µM | 35.6 µM | 36.2 µM | 33.3 µM | > 68.5 µM | 13.3 µM | 34.8 µM | 32.1 µM | 4.15 µM | 21.3 µM | – | – | – | – | –
CCOC(=O)C(C)OC(=O)c1ccc(C)cc1 (centres undefined) | > 100 µM | > 100 µM | – | > 100 µM | > 100 µM | > 100 µM | > 100 µM | > 100 µM | > 100 µM | – | – | – | – | – | –
O=c1oc2c(ccc3occc32)c(N2CCCCC2)c1-c1ccccc1 | > 100 µM | > 100 µM | > 100 µM | > 100 µM | > 31.7 µM | > 100 µM | > 100 µM | > 100 µM | > 30.3 µM | – | – | – | – | – | –
CCOC(=O)c1c(Nc2ccccc2)sc2cccnc12 | 81.1 µM | 59 µM | > 81 µM | 49.6 µM | 55.9 µM | > 58.4 µM | 79.4 µM | 45 µM | 43.4 µM | > 100 µM | – | – | – | – | –
Cc1cc(N2CCOCC2)nc(N(CCCNc2ccnc3cc(Cl)ccc23)Cc2ccc3c(c2)OCO3)n1 | 3.12 µM | 5.55 µM | – | 2.8 µM | 2.97 µM | – | – | – | – | 3.93 µM | 1.61 | 2.29 | 1.34 | 0.598 | 1.41
CC(C)c1ccc2c(c1)[C@@]1(C)CC[C@H](C)C(C)(C)C1CC2 (some centres undefined) | 32.1 µM | 35.2 µM | 35.2 µM | 31.3 µM | 94.7 µM | 75.3 µM | 52.6 µM | 31.8 µM | > 100 µM | 66.4 µM | – | – | – | – | –
CC1=NN(c2cccc(Cl)c2)C(=N/c2nc3ccccc3s2)/C1=C\C=C\c1ccccc1 | – | > 100 µM | > 100 µM | > 100 µM | 3.48 µM | 92.3 µM | > 100 µM | – | > 100 µM | > 100 µM | – | – | – | – | –
NC(N)=NS(=O)(=O)c1ccc(Nc2c3ccccc3nc3c(C(=O)N4CCN(CCO)CC4)ccc(Cl)c23)cc1 | > 100 µM | – | > 100 µM | > 100 µM | > 100 µM | – | > 100 µM | > 100 µM | > 100 µM | – | – | – | – | – | –
CCOC(=O)C(=CNC(Cc1c[nH]c2ccccc12)C(=O)OC)C(=O)OCC (centres undefined) | – | > 100 µM | – | > 100 µM | > 100 µM | > 100 µM | – | > 100 µM | > 100 µM | – | – | – | – | – | –
O=C(CSc1nc2ccc(Cl)cc2c(=O)n1-c1ccccc1)N=Nc1c(O)[nH]c2ccc(F)cc12 | 5.42 µM | 14.4 µM | 4.19 µM | 3.96 µM | 5.56 µM | 3.86 µM | 9.01 µM | 4.67 µM | 0.411 µM | 4.8 µM | – | – | – | – | –
COC(=N)C(C)C | > 100 µM | – | > 100 µM | > 100 µM | > 100 µM | > 100 µM | > 100 µM | > 100 µM | > 100 µM | – | – | – | – | – | –
CC(C)=CCC/C(C)=C/CC/C(C)=C/[C@@H]1[C@@H](CO)[C@]1(C)CC/C=C(\C)CCC=C(C)C | > 100 µM | 48.2 µM | > 100 µM | > 100 µM | > 100 µM | 32.7 µM | > 100 µM | > 100 µM | 34.3 µM | > 100 µM | – | – | – | – | –
CC(C)(C)c1ccc(O)c(Br)c1 | > 100 µM | > 100 µM | > 100 µM | > 100 µM | > 100 µM | > 100 µM | > 100 µM | > 100 µM | > 100 µM | > 100 µM | – | – | – | – | –
COC(=O)c1c(O)ccc2c1c1c(n2Cc2ccccn2)C(=O)c2ccccc2C1 | > 100 µM | – | > 100 µM | > 100 µM | > 100 µM | – | > 100 µM | > 100 µM | > 100 µM | – | – | – | – | – | –

— PubChem BioAssay (NCI)
